From PMC12548414 (Journal of Bacteriology, 2025)
Values after ≈ are worked out from the molar mass of the structure shown.

What was measured:
[1] = test system: T1, E. coli pLC1021 (luc-trpAt trans-translation reporter); design: species or system Escherichia coli pLC1021; luc-trpAt non-stop luciferase reporter; luminescence rises when trans-translation is inhibited; normalized to KKL-35 and DMSO; details: 2 h, 20 µM
T1 construct: pLC1021 luc-trpAt reporter strain
Description: The luciferase screen was performed as previously described ([16]). […] 48 µL of cells was transferred to white 96-well plates, and 2 µL DMSO or 20 µM compound, or 20 µM KKL-35 was added. Plates were sealed with adhesive film, vortexed gently to mix, and incubated at room temperature for 2 h. 50 µL Bright-Glo reagent (Promega, Madison, WI) was added to each well, and the plates were sealed with adhesive film, vortexed vigorously, and incubated for an additional 10 min at room temperature. Luminescence was measured at 560 nm using a SpectraMax i3 microplate reader and readings for each plate were normalized to the average of three KKL-35-treated wells (positive control) and three DMSO-treated wells (negative control) within the plate to correct for plate-to-plate and day-to-day variations. Results from at least two biological repeats were averaged, and GraphPad Prism was used to plot the data. We screened a library of 1,601 anti-tubercular small molecules for their ability to inhibit trans-translation using a luciferase reporter in Escherichia coli. In this luc-trpAt reporter, the firefly luciferase gene has a trpA transcriptional terminator before the stop codon, such that luciferase is translated from a non-stop mRNA ([16]). When trans-translation is active, the luciferase will be tagged and degraded, but when trans-translation is inhibited, active luciferase will accumulate, resulting in a luminescent signal when luciferin is added. Luciferase activity was measured after growth in the presence of compounds from the library at 20 µM, using the known trans-translation inhibitor KKL-35 as a positive control (Fig. 1A) ([16], [17]). Compounds with activity one standard deviation above the median were scored as positive (Fig. S1 and Table S1).

ribosomal protein bL12 [2] = target: T2, ribosomal protein bL12 (Escherichia coli, UniProt P0A7K2); test: biochemical; assay type: binding
T2 construct: gene rplL

ribosomal protein bL12 [3] = target: T3, ribosomal protein bL12 (Mycobacterium tuberculosis, UniProt P9WHE3); test: biochemical; assay type: binding
T3 construct: gene rplL; 6His-tagged M. tuberculosis bL12
T3 sequence (P9WHE3 1-130): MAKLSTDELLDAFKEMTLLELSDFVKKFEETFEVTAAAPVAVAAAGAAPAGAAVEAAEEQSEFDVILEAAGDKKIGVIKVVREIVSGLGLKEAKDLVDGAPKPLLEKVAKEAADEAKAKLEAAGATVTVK

M. tuberculosis = test: microbe, parasite or virus in culture; design: species or system Mycobacterium tuberculosis H37Rv ΔRD1 ΔpanCD; details: Mycobacterium tuberculosis, 168 h, read-out: MIC
E. coli ΔtolC = test system: T4, E. coli ΔtolC; test: microbe, parasite or virus in culture; design: species or system Escherichia coli ΔtolC; broth microdilution MIC, lowest concentration with no visible growth; details: Escherichia coli, 20 h, read-out: MIC
T4 construct: ΔtolC

B. anthracis = test: microbe, parasite or virus in culture; details: Bacillus anthracis, 20 h, read-out: MIC

T2 sequence (P0A7K2 2-121): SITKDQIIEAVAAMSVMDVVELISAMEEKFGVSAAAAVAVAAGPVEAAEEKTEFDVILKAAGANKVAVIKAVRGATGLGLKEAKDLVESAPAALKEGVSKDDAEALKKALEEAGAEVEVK

Compound | % activation [1] | further results
CC(C)[C@H]1OC(=O)[C@H](Cc2ccccc2)N(C)C(=O)[C@@H](C(C)C)OC(=O)[C@H](Cc2ccccc2)N(C)C(=O)[C@@H](C(C)C)OC(=O)[C@H](Cc2ccccc2)N(C)C1=O [KKL-0304] | 0% | –
O=C(Nc1nc(NC(=O)c2ccco2)n(-c2ccccc2)n1)c1ccccc1 [KKL-1005, N-(5-benzamido-2-phenyl-1,2,4-triazol-3-yl)furan-2-carboxamide] | – | Kd (ribosomal protein bL12 [2]): 8 ± 2 µM; Kd (ribosomal protein bL12 [3]): 4 ± 0.2 µM; MIC (M. tuberculosis): 4.7 µg/mL (≈ 12.6 µM); MIC (E. coli ΔtolC): 9.3 µg/mL (≈ 24.9 µM); MIC (B. anthracis): 9.3 µg/mL (≈ 24.9 µM)
CCc1ccc([C@@H]2C[C@H](C(F)(F)F)n3ncc(C(=O)NCc4ccc(OC)cc4)c3N2)cc1 [KKL-1692] | 0% | –
Cc1cccc(-c2nc(Nc3ccncn3)c3sccc3n2)n1 [KKL-1695] | 0% | –
Cc1cccc(-c2nc(Nc3ccncn3)c3c(C)csc3n2)n1 [KKL-1712] | 6% | –
O=C(NC12CC3CC(CC(C3)C1)C2)c1cc2cc(Cl)ccc2[nH]1 [KKL-1781] | 0% | –
c1cc2c(s1)CCOC21CCN(Cc2ccc3c(c2)OCCO3)CC1 [KKL-1815] | 0% | –
COc1ccc(CCNc2cc(-c3ccccc3)nc3ncnn23)cc1 [KKL-1831] | 3% | –
Cc1ccc2nc(C)c(C(=O)NCc3cccs3)n2c1 [KKL-1863] | 4% | –
CNc1nc(SC)nc2ccccc12 [KKL-1869] | 0% | –
